Results taken from US8513292B2, “Compositions and methods for the treatment of cancer” (ArQule, Inc., priority 2007, dated 2013).
Where a SMILES comes first, the peptide text is derived from it. The star is where a group is joined. Cbz = O=C(OCc1ccccc1)*; CH2F = FC*

Columns and labels:
[1] = target: T1, Recombinant unphosphorylated c-Met comprising residues 1038-1346 (Homo sapiens, UniProt P08581); assay: c-Met p33 kinase assay (33P-ATP, IGF-1 Rtide substrate); assay type: biochemical; settings: 15 minutes preincubation, 100 μM ATP, 30 minutes reaction
T1 construct: The DNA fragment encoding the kinase domain (1038-1346) was inserted into Novagen vector pet28a; six-histidine tag (N); made in house; host or cells: E. coli BL21(DE3)RIL
Text: cDNA of full-length c-Met purchased from Origen Technologies was used as template for PCR amplification. The DNA fragment encoding the kinase domain (1038-1346) was inserted into Novagen vector pet28a between Nco1 and Sal1 sites. The primers were designed to contain a six-histidine tag to the N-terminus. In order to express dephosphorylated c-Met kinase protein, a tyrosine phosphatase PTP1B (1-283) was sequentially ligated into the made construct between SalI and Nod sites. A second ribosome binding site was incorporated in the PTP1B primer after the SalI site. The N-terminal His-tagged proteins were expressed in Circlegrow broth (Q-Biogen). The transformed E. Coli cell line BL21(DE3)RIL (Stratagene) was cultured to OD=0.8 at 37° C. and induced with 0.3 mM of IPTG for overnight at 12° C. The co-expressed protein was purified by metal-chelation chromatography followed by anion and cation columns. In brief, 4 liters of cells were lysed by sonication in 140 ml buffer containing 20 mM MOPS pH=6.5, 200 mM NaCl, 7.5% glycerol, 0.1% Igepal, supplied with 1 mM PMSF. The supernatant was obtained by centrifugation at 50,000 g for 30 minutes and followed by incubation with 8 mL of Ni-NTA His Bind resin (Novagen) at 4° C. for one hour. A second step 50 mL wash buffer (with 100 mM NaCl and 5 mM imidazole) was applied after initial wash with the lysis buffer. Protein was eluted by 200 mM imidazole pH=8.5, 100 mM NaCl and 7.5% glycerol and directly cleared by passing 10 mL QFF column. The salt concentration and the pH value of the protein flow through were adjusted to 50 mM and 7.5 by dilution, and then loaded to 1 mL SP FF column. The protein was further gel-filtered in an equilibrium buffer of 20 mM TrisHCl pH=8.5, 150 mM NaCl, 7.5% glycerol and 2 mM DTT. The monomeric unphosphorylated c-Met protein was concentrated to 30 mg/mL for storage at −80° C.
Recombinant unphosphorylated c-Met comprising residues 1038-1346 (12.5 ng) was pre-incubated with increasing concentrations of compounds for 15 minutes at room temperature. […]

HT29 cells [2] = assay: MTS assay; assay type: cell-based; settings: Homo sapiens, HT-29, compound for 24 hours, then drug-free medium for additional 48 hours, MTS readout
Description: HT29 cells were seeded in 96-well plates at 1,800 cells/well overnight in medium with 10% FBS. The next day, cells were treated with increasing concentrations of compounds for 24 hours at 37° C. After the treatments, the compound-containing medium was removed, cells were washed twice with PBS, and incubated in drug-free medium containing 10% FBS for an additional 48 hours. After addition of MTS and PMS for 4 hours at concentrations of 2 mg/mL and 0.92 mg/mL, respectively, the results were quantitated by spectrophotometry at λ=490 nm and IC50 for each compound was determined

HT29 cells [3] = assay: Cell death by Annexin V-Fluos staining after siRNA transfection, high content imaging; assay type: cell-based; settings: increasing concentrations of caspase inhibitor for 1 additional day after transfection
Description: Exponentially growing HT29 cells were plated in black 96-well plates at 5,000 cells/well overnight in medium with 10% FBS. The next day, cells were transiently transfected for 2 days using DharmaFECT 4 reagent with a pool of four met-specific 21-nucleotide RNA oligonucleotides forming a 19-bp duplex core with 2-nucleotide 3′ overhang in combination (Dharmacon, Inc., Lafayette, Colo.). Transfection of gapdh siRNA (Dharmacon, Inc.) and of a non-targeting siRNA under the same conditions was done in parallel as controls (Dharmacon, Inc.). Cells were then incubated in the absence or the presence of increasing concentrations of ZvAD-FMK, an irreversible caspase inhibitor for 1 additional day. Cells were incubated for at least 10 minutes in a labeling solution (10 mM HEPES, 140 mM NaCl and 6 mM CaCl2) containing 2 μg/ml Hoechst 33342 (blue channel; Molecular Probes/Invitrogen Corp., Natick, Mass.), 500 times diluted Annexin V-Fluos (green channel; Roche Applied Science, Indianapolis, Ind.) and 1 μg/ml propidium iodide (red channel; Roche Applied Science). High content image acquisition and analysis were carried out using a Beckman Coulter IC100 Cytometer. The program was set to take four images per well. […] Images were processed and numbers of positive cells for each channel and each condition were determined using Cytoshop 2.1 software (Beckman Coulter, Inc.). […]

T1 sequence (P08581 1038-1346): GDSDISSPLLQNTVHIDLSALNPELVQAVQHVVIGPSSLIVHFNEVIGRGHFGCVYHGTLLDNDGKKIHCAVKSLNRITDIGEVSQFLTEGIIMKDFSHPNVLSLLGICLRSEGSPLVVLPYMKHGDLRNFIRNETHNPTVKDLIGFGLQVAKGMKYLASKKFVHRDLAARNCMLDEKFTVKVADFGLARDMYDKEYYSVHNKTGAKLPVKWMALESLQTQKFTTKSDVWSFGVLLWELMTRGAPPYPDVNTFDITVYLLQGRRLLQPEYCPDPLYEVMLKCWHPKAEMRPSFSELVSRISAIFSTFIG

| SMILES | IC50 [1] [nM] | IC50 (HT29 cells [2]) [nM] | melting point [°C] | levels of cell death in met siRNA transfected cells (HT29 cells [3]) |
| --- | --- | --- | --- | --- |
| O=C1NC(=O)[C@H](c2c[nH]c3ccccc23)[C@@H]1C(=O)c1cn2c3c(cccc13)CCC2 (racemic) [Example 9, (±)-cis-3-(5,6-dihydro-4H-pyrrolo[3,2,1-ij]quinoline-1-carbonyl)-4-(1H-indol-3-yl)-pyrrolidine-2,5-dione] | ≥ 10000 | 1000 to 10000 | 283 to 285 |  |
| O=C1NC(=O)[C@@H](c2c[nH]c3ccccc23)[C@@H]1Cc1cn2c3c(cccc13)CCC2 (racemic) [Example 6, (±)-trans-3-(5,6-dihydro-4H-pyrrolo[3,2,1-ij]quinolin-1-ylmethyl)-4-(1H-indol-3-yl)-pyrrolidine-2,5-dione] |  | 1000 to 10000 | 215 to 218 |  |
| O=C1NC(=O)[C@@H](c2c[nH]c3ccc(Br)cc23)[C@@H]1c1cc2c3c(ccn3CCC2)c1 (racemic) [Example 19, (±)-trans-3-(5-bromo-1H-indol-3-yl)-4-(5,6-dihydro-4H-pyrrolo[3,2,1-ij]quinolin-8-yl)-pyrrolidine-2,5-dione] |  | ≤ 1000 | 195 to 200 |  |
| O=C1NC(=O)[C@@H](c2cn3c4c(cccc24)CC3)[C@@H]1c1c[nH]c2ccccc12 (racemic) [Example 33, (±)-trans-3-(4,5-dihydro-pyrrolo[3,2,1-hi]indol-1-yl)-4-(1H-indol-3-yl)-pyrrolidine-2,5-dione] | ≥ 10000 | ≤ 1000 | 144 to 148 |  |
| COC(=O)C[C@H](NC(=O)[C@H](C)NC(=O)[C@@H](NC(=O)OCc1ccccc1)C(C)C)C(=O)CF [ZvAD-FMK] (Cbz-Val-Ala-Asp(OMe)-CH2F) |  |  |  | decreased the levels of cell death |
| O=C1NC(=O)[C@@H](c2ccccc2Cl)[C@@H]1c1cc2c3c(ccn3CCC2)c1 (racemic) [Example 22, (±)-trans-3-(2-chloro-phenyl)-4-(5,6-dihydro-4H-pyrrolo[3,2,1-ij]quinolin-8-yl)-pyrrolidine-2,5-dione] |  | ≤ 1000 | 209 to 212 |  |
| COc1cccc([C@@H]2C(=O)NC(=O)[C@H]2c2cc3c4c(ccn4CCC3)c2)c1 (racemic) [Example 25, (±)-trans-3-(5,6-dihydro-4H-pyrrolo[3,2,1-ij]quinolin-8-yl)-4-(3-methoxy-phenyl)-pyrrolidine-2,5-dione] |  | ≤ 1000 |  |  |
| O=C1NC(=O)[C@@H](c2cc3c4c(ccn4CCC3)c2)[C@H]1c1c[nH]c2ccccc12 (racemic) [Example 16] | ≥ 10000 | ≤ 1000 | 141 to 145 |  |
